According to ChEMBL document CHEMBL3046883, “Evaluation of insecticidal activity of diterpenes and lignans from Aristolochia malmeana against Anticarsia gemmatalis” (2008):
Active and inactive are the calls of the source. The calls are words filed in the database; no cut-off is given here.

Tested on: Anticarsia gemmatalis
Assay: Insecticidal activity against Anticarsia gemmatalis (velvetbean caterpillar) third-instar larvae exposed to compound through topical dosing at mesothorax region assessed as induction of larval mortality
Format: functional

SMILES | LD50 | LD10 | inhibition
C=C1C=C(C)[C@]2(C)CC[C@@H](C)[C@](C)(CC/C(C)=C/C(=O)O)[C@H]2C1 | inactive |  | 
O=C1OC[C@H](Cc2ccc3c(c2)OCO3)[C@H]1Cc1ccc2c(c1)OCO2 | inactive |  | 
COc1ccc(C[C@H]2COC(=O)[C@@H]2Cc2ccc3c(c2)OCO3)cc1OC [(-)-KUSUNOKININ] | 230.1 µg/µL | 9.3 µg/µL | Dose-dependent effect
